Results from patent US10501516B2, “Peptide compound” (TAKEDA PHARMACEUTICAL COMPANY LIMITED, priority 2016, dated 2019).
Square brackets hold non-standard residues; d marks the D form. Side chains are listed from the residue outwards. Peptide text beside a SMILES is read from it. * marks the point of attachment. C18 diacid = O=C(O)CCCCCCCCCCCCCCCCC(=O)*; Phe(2-F) = N[C@@H](Cc1ccccc1F)C(=O)O; NMeY = CN[C@@H](Cc1ccc(O)cc1)C(=O)O; αMeF = C[C@](N)(Cc1ccccc1)C(=O)O; Iva = CC[C@](C)(N)C(=O)O; Aib = CC(C)(N)C(=O)O

What was measured:
human NPY2R = biological target: T1, human NPY2R (Homo sapiens, UniProt P49146); assay: Reporter assay of human NPY2R gene (agonist activity, decrease in intracellular cAMP as index); assay type: cell-based; settings: Cre-luc reporter, hNPY2R CHO-K1 cells, forskolin 1.2 μM, 4 hours; read-out: Agonist activity (EC50) hY2R
T1 construct: expressed in transfected cells; host or cells: CHO-K1 Cre-luc reporter cells (pAKKO1114/hNPY2R#481 No. 88 cells)
T1 sequence (P49146 1-381): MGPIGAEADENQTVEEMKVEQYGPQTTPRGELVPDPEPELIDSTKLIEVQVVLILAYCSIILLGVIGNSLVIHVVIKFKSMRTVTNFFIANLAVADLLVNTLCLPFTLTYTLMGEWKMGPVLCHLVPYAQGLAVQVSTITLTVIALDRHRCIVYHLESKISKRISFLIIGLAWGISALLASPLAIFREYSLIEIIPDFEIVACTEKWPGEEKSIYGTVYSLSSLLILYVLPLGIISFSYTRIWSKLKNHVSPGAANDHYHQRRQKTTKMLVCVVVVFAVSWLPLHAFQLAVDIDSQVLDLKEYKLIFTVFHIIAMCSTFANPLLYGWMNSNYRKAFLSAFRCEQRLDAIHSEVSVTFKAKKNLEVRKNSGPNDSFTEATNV
Excerpt: Evaluation of Agonist Activity Against Human NPY2R, Human GIPR, and Human GLP-1R Using Change in Intracellular cAMP Concentration as Index
The human NPY2R gene having a sequence identical to the sequence of GenBank Accession No. AC104407 was cloned into pAKKO1114 vector to prepare hNPY2R/pAKKO1114. Next, pGL4.29 (Promega) was introduced to CHO-K1 cells, which were then screened with hygromycin to construct Cre-luc reporter cells. These cells were cotransfected with hNPY2R/pAKKO1114 and pcDNA3.1 (Life Technologies Corp.), and the cells were screened with geneticin. Next, a cell line induced to express luciferase, i.e., pAKKO1114/hNPY2R#481 No. 88 cells, were selected from the obtained transformants by the addition of human PYY (3-36).
The pAKKO1114/hNPY2R#481 No. 88 cells were inoculated at a cell density of 25 μL/well (5,000 cells/well) to a 384-well white plate (Corning, 3570), and cultured overnight in Ham F12 medium containing 10% fetal bovine serum, 100 U/mL penicillin and 100 μg/mL streptomycin in a CO2 incubator of 37° C. On the next day, the medium was removed, and an assay medium (Ham F12 medium containing 0.1% BSA, 100 U/mL penicillin and 100 μg/mL streptomycin) containing forskolin (final concentration: 1.2 μM) was added at a concentration of 25 μL/well to the cells. Next, an assay medium containing a test compound was added at a concentration of 5 μL/well to the cells, and the resultant cells were incubated for 4 hours in a CO2 incubator of 37° C. to give the final concentration of 1 μM. SteadyGlo (Promega) was added thereto at a concentration of 30 μL/well, and the mixture was left standing for 20 minutes with light shielded. The luciferase activity was measured using a plate reader Envision (PerkinElmer). The luciferase activity from the addition of DMSO was defined as 100%, and the luciferase activity from the addition of 1 μM human PYY(3-36) instead of the test compound was defined as 0%. The NPY2R agonist activity was calculated with a decrease in intracellular cAMP concentration as an index.

male C57BL/6J mouse = assay: Evaluation of feeding suppressive action in mice; assay type: in vivo; settings: 3-days cumulative food consumption vs solvent control
Method in brief: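 Male C57BL/6J mice, 8-9 weeks, ad libitum fed, given compound (30 or 100 nmol/2 mL in 10% DMSO saline) s.c. at 2 mL/kg once daily for 3 days. Cumulative 3-day food consumption measured by weighing; suppression rate (%) calculated relative to vehicle controls.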

EC50 (human NPY2R)	Compound	Rate of feeding suppression (%) (male C57BL/6J mouse; 100 nmol/kg s.c. once a day for 3 days)	Rate of feeding suppression (%) (male C57BL/6J mouse; 30 nmol/kg s.c. once a day for 3 days)
2.1 nM	CC[C@H](C)[C@H](NC(=O)C(C)(C)NC(=O)[C@H](CCCCNC(=O)CNC(=O)CNC(=O)CNC(=O)CNC(=O)CCCCCCCCCCCCCCCCC(=O)O)NC(=O)[C@H](CC(=O)O)NC(=O)[C@H](CO)NC(=O)[C@@H](NC(=O)[C@](C)(Cc1ccccc1)NC(=O)[C@@H](NC(=O)CNC(=O)[C@H](CCC(=O)O)NC(=O)C(C)(C)NC(=O)[C@@H](N)Cc1ccc(O)cc1)[C@@H](C)O)[C@@H](C)O)C(=O)NC(C)(C)C(=O)N[C@@H](CC(C)C)C(=O)N[C@@H](CC(=O)O)C(=O)N[C@@H](CCCCN)C(=O)N[C@@H](CCC(N)=O)C(=O)N[C@@H](C)C(=O)N[C@@H](CCC(N)=O)C(=O)N[C@@](C)(CC)C(=O)N[C@@H](CCC(=O)O)C(=O)N[C@@H](Cc1ccccc1)C(=O)N[C@H](C(=O)N[C@@H](CCCNC(=N)N)C(=O)N[C@@H](Cc1c[nH]cn1)C(=O)N[C@@H](CC(C)C)C(=O)N[C@@H](CC(C)C)C(=O)N[C@@H](CC(N)=O)C(=O)N[C@@H](CCCCN)C(=O)NC(C)(C)C(=O)N[C@H](C(=O)N[C@@H](CCCNC(=N)N)C(=O)N[C@@H](CCC(N)=O)C(=O)N[C@@H](CCCNC(=N)N)C(=O)N[C@@H](Cc1ccccc1F)C(N)=O)[C@@H](C)O)C(C)C [Example 2] (H-Y[Aib]EGT[αMeF]TSDK([Gly-Gly-Gly-Gly-C18 diacid])[Aib]I[Aib]LDKQAQ[Iva]EFVRHLLNK[Aib]TRQR[Phe(2-F)]-NH2)	−77.3%	–
2.1 nM	CC[C@H](C)[C@H](NC(=O)C(C)(C)NC(=O)[C@H](CCCCNC(=O)CNC(=O)CNC(=O)CNC(=O)CNC(=O)CCCCCCCCCCCCCCCCC(=O)O)NC(=O)[C@H](CC(=O)O)NC(=O)[C@H](CO)NC(=O)[C@@H](NC(=O)[C@](C)(Cc1ccccc1)NC(=O)[C@@H](NC(=O)CNC(=O)[C@H](CCC(=O)O)NC(=O)C(C)(C)NC(=O)[C@@H](N)Cc1ccc(O)cc1)[C@@H](C)O)[C@@H](C)O)C(=O)NC(C)(C)C(=O)N[C@@H](CC(C)C)C(=O)N[C@@H](CC(=O)O)C(=O)N[C@@H](CCCCN)C(=O)N[C@@H](CCC(N)=O)C(=O)N[C@@H](CCCNC(=N)N)C(=O)N[C@@H](CCC(N)=O)C(=O)N[C@@](C)(CC)C(=O)N[C@@H](CCC(=O)O)C(=O)N[C@@H](Cc1ccccc1)C(=O)N[C@H](C(=O)N[C@@H](CCCNC(=N)N)C(=O)N[C@@H](Cc1c[nH]cn1)C(=O)N[C@@H](CC(C)C)C(=O)N[C@@H](CC(C)C)C(=O)N[C@@H](CC(N)=O)C(=O)N[C@@H](CCCCN)C(=O)NC(C)(C)C(=O)N[C@H](C(=O)N[C@@H](CCCNC(=N)N)C(=O)N[C@@H](CCC(N)=O)C(=O)N[C@@H](CCCNC(=N)N)C(=O)N[C@@H](Cc1ccc(O)cc1)C(N)=O)[C@@H](C)O)C(C)C [Example 8] (H-Y[Aib]EGT[αMeF]TSDK([Gly-Gly-Gly-Gly-C18 diacid])[Aib]I[Aib]LDKQRQ[Iva]EFVRHLLNK[Aib]TRQRY-NH2)	–	–
2.6 nM	CC[C@H](C)[C@H](NC(=O)[C@H](CO)NC(=O)[C@H](CCCCNC(=O)CNC(=O)CNC(=O)CNC(=O)CNC(=O)CCCCCCCCCCCCCCCCC(=O)O)NC(=O)[C@H](CC(=O)O)NC(=O)[C@H](CO)NC(=O)[C@@H](NC(=O)[C@](C)(Cc1ccccc1)NC(=O)[C@@H](NC(=O)CNC(=O)[C@H](CCC(=O)O)NC(=O)C(C)(C)NC(=O)[C@@H](N)Cc1ccc(O)cc1)[C@@H](C)O)[C@@H](C)O)C(=O)NC(C)(C)C(=O)N[C@@H](CC(C)C)C(=O)N[C@@H](CC(=O)O)C(=O)N[C@@H](CCCCN)C(=O)N[C@@H](CCC(N)=O)C(=O)N[C@@H](CCCNC(=N)N)C(=O)N[C@@H](CCC(N)=O)C(=O)N[C@@](C)(CC)C(=O)N[C@@H](CCC(=O)O)C(=O)N[C@@H](Cc1ccccc1)C(=O)N[C@H](C(=O)N[C@@H](CCCNC(=N)N)C(=O)N[C@@H](Cc1c[nH]cn1)C(=O)N[C@@H](CC(C)C)C(=O)N[C@@H](CC(C)C)C(=O)N[C@@H](CC(N)=O)C(=O)N[C@@H](CCCCN)C(=O)NC(C)(C)C(=O)N[C@H](C(=O)N[C@@H](CCCNC(=N)N)C(=O)N[C@@H](CCC(N)=O)C(=O)N[C@@H](CCCNC(=N)N)C(=O)N[C@@H](Cc1ccc(O)cc1)C(N)=O)[C@@H](C)O)C(C)C [Example 16] (H-Y[Aib]EGT[αMeF]TSDK([Gly-Gly-Gly-Gly-C18 diacid])SI[Aib]LDKQRQ[Iva]EFVRHLLNK[Aib]TRQRY-NH2)	–	–
1.5 nM	CC[C@H](C)[C@H](NC(=O)C(C)(C)NC(=O)[C@H](CCCCNC(=O)CNC(=O)CNC(=O)CNC(=O)CNC(=O)CCCCCCCCCCCCCCCCC(=O)O)NC(=O)[C@H](CC(=O)O)NC(=O)[C@H](CO)NC(=O)[C@@H](NC(=O)[C@](C)(Cc1ccccc1)NC(=O)[C@@H](NC(=O)CNC(=O)[C@H](CCC(=O)O)NC(=O)C(C)(C)NC(=O)[C@H](Cc1ccc(O)cc1)NC)[C@@H](C)O)[C@@H](C)O)C(=O)NC(C)(C)C(=O)N[C@@H](CC(C)C)C(=O)N[C@@H](CCC(=O)O)C(=O)N[C@@H](CCCCN)C(=O)N[C@@H](CCC(N)=O)C(=O)N[C@@H](CCCNC(=N)N)C(=O)N[C@@H](CCC(N)=O)C(=O)N[C@@](C)(CC)C(=O)N[C@@H](CCC(=O)O)C(=O)N[C@@H](Cc1ccccc1)C(=O)N[C@H](C(=O)N[C@@H](CCCNC(=N)N)C(=O)N[C@@H](Cc1c[nH]cn1)C(=O)N[C@@H](CC(C)C)C(=O)N[C@@H](CC(C)C)C(=O)N[C@@H](CC(N)=O)C(=O)N[C@@H](CCCCN)C(=O)NC(C)(C)C(=O)N[C@H](C(=O)N[C@@H](CCCNC(=N)N)C(=O)N[C@@H](CCC(N)=O)C(=O)N[C@@H](CCCNC(=N)N)C(=O)N[C@@H](Cc1ccc(O)cc1)C(N)=O)[C@@H](C)O)C(C)C [Example 34] (H-[NMeY][Aib]EGT[αMeF]TSDK([Gly-Gly-Gly-Gly-C18 diacid])[Aib]I[Aib]LEKQRQ[Iva]EFVRHLLNK[Aib]TRQRY-NH2)	–	−39.9%
